The source of these data is patent US11413267B2, “Methods and compositions for inhibition of ATR and FANCD2 activation” (priority 2012, dated 2022).

Molecules are shown by their SMILES. Marks after values point to notes of the source that are not given here.

The test system of the data set is CHO cells. Put plainly: In vitro chromosome aberration test. Conditions: for Average aberrant metaphases (%) / Chromatid break (No.) / Chromatid deletion / Complex rerrangement / Dicentric / Polyploid / Pulverized cell / Quadriradial / Ring / Triradial: Chinese hamster, 20 h. The format is cell-based, Chinese Hamster. The procedure:
To test this hypothesis, we investigated the cytogenetic effect of Protoapigenone (I-1) on CHO cells (FIG. 1).
In brief, 5×10^5 Chinese Hamster Ovary (CHO) cells were seeded in 60-mm dishes 1 d before the experiment. Protoapigenone (I-1)-induced structural chromosomal changes after 20 h were compared with that of the cells cultured in 2 μM mitomycin C. At 18 h after Protoapigenone (I-1), 0.1 μg/mL colchicine was added for 2 h, and metaphase cells were collected by shaking them off the dishes. Mitotic cells were treated with 0.5% KCl for 10 min and fixed with a 3:1 mixture of methanol: glacial acetic acid. The cells were then spread on slides for chromosome staining with 5% Giemsa solution. We then analyzed the chromosome structure of 200 well-spread metaphase cells (100 metaphase cells/experiment) under a 100× oil immersion objective.

Turning to `O=C1C=CC(O)(c2cc(=O)c3c(O)cc(O)cc3o2)C=C1` [Compound I-1, Protoapigenone], the “Chromosomal structural changes (breakages, radials, polyploidy), in words” value is given as “dose-dependent increases” and the “Obtaining complete mitotic chromosome” value is recorded as “complete mitotic chromosome could not be obtained”. For the setting “2.17 μM”, the “Average aberrant metaphases (%)” value was 6.5 * %, the “Chromatid break (No.)” value is reported as 2 No, the Chromatid deletion was 0 No and the Complex rerrangement is 0 No. In addition, under “2.17 μM”, the Dicentric is given as 0 No, the Polyploid was found to be 3 No, the Pulverized cell came out at 0 No and the Quadriradial came out at 3 No. Moreover, under “2.17 μM”, the Ring amounted to 1 No and the Triradial was 4 No. Moreover, for the setting “4.35 μM”, the “Average aberrant metaphases (%)” value is 14.0 * %, the “Chromatid break (No.)” value amounted to 1 No, the Chromatid deletion was 1 No and the Complex rerrangement stood at 0 No. In addition, where the note is “4.35 μM”, the Dicentric stood at 0 No, the Polyploid is 1 No, the Pulverized cell was 1 No and the Quadriradial is given as 9 No. Also, under “4.35 μM”, the Ring was determined as 2 No and the Triradial is given as 13 No.
